This is an account of results in article PMC8933014, “Diversely substituted sulfamides for fragment-based drug discovery of carbonic anhydrase inhibitors: synthesis and inhibitory profile” (Journal of Enzyme Inhibition and Medicinal Chemistry, 2022).

Counter-ions that a name gives are not always drawn.

One assay deals with T1, hCA I (Homo sapiens, UniProt P00915).
T1 construct: gene CA1; recombinant, obtained in-house
T1 sequence (P00915 2-261): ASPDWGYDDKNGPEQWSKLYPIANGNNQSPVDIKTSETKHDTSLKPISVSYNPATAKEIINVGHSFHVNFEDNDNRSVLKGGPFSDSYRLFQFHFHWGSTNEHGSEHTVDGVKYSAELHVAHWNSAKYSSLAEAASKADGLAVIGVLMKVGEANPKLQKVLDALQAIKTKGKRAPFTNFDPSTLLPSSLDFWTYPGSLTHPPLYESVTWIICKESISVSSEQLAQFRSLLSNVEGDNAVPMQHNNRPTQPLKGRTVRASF
In words: stopped-flow CO2 hydration. The conditions noted are these: read-out: Ki (nM)^b / hCA I. In kind it is biochemical. An excerpt:
stopped-flow CO2 hydration on hCA I
For `NS(=O)(=O)N1CCC(O)CC1` [2a, 4-Hydroxypiperidine-1-sulphonamide], the Ki is 75.6 nM.

In the case of `CN1CCN(S(N)(=O)=O)CC1` [2b, 4-Methylpiperazine-1-sulphonamide], the Ki was found to be 64.2 nM.

On to `NS(=O)(=O)NCc1ccc(F)cc1` [2c, N-(4-Fluorobenzyl)sulfamide], for which the Ki was determined as 126 nM.

Take `NS(=O)(=O)NC1CCCc2ccccc21` (centres unmarked) [2d, N-(1,2,3,4-Tetrahydronaphthalen-1-yl)sulfamide]: the Ki came to 121 nM.

As to `NS(=O)(=O)NCC1CCCO1` (centres unmarked) [2e, N-((tetrahydrofuran-2-yl)methyl)sulfamide], the Ki worked out at 38.4 nM.

Regarding `COC(=O)C1CCCN1S(N)(=O)=O` (centres unmarked) [2f, Methyl sulfamoylprolinate], the Ki turned out to be 52.1 nM.

As for `CN1CCC(NS(N)(=O)=O)CC1` [2g, (1-Methylpiperidin-4-yl)sulfamide], the Ki is 89.7 nM.

As for `NS(=O)(=O)N1CCC(c2ccccc2)CC1` [2h, 4-Phenylpiperidine-1-sulphonamide], the Ki came out at 359 nM.

On to `CN(C)CCN(Cc1ccccc1)S(N)(=O)=O` [2i, Benzyl (2-(dimethylamino)ethyl)sulfamide], for which the Ki came to 28.4 nM.

As for `NS(=O)(=O)NCc1cccnc1` [2j, (Pyridin-3-ylmethyl)sulfamide], the Ki stood at 98.5 nM.

For the molecule `NS(=O)(=O)NCc1cccs1` [2k, (Thiophen-2-ylmethyl) sulfamide], the Ki amounted to 22.6 nM.

On to `CCN(CC)CCN(C)S(N)(=O)=O` [2l, (2-(Diethylamino)ethyl)(methyl)sulfamide], for which the Ki was 59.6 nM.

Turning to `CCOC(=O)C1CCN(S(N)(=O)=O)CC1` [2m, Ethyl 1-sulfamoylpiperidine-4-carboxylate], the Ki turned out to be 62.8 nM.

As for `NS(=O)(=O)N1CCC(N2CCCCC2)CC1` [2n, [1,4'-Bipiperidine]-1'-sulphonamide], the Ki worked out at 497 nM.

With `NS(=O)(=O)N1CCOCC1` [2o, Morpholine-4-sulphonamide], the Ki stood at 59.2 nM.

As to `NC(=O)C1CCN(S(N)(=O)=O)CC1` [2p, 1-Sulfamoylpiperidine-4-carboxamide], the Ki turned out to be 88.2 nM.

`NS(=O)(=O)N1CCNCC1` [2q, Piperazine-1-sulphonamide hydrochloride]: the Ki stood at 68.9 nM.

As to `CC1Cc2ccccc2N1S(N)(=O)=O` (centres unmarked) [2r, 2-Methylindoline-1-sulphonamide], the Ki came to 868 nM.

Regarding `NS(=O)(=O)Nc1ncccn1` [2s, N-(Pyrimidin-2-yl)sulfamide], the Ki came out at 29.6 nM.

Take `NS(=O)(=O)N1CCCc2ccccc21` [2t, 3,4-Dihydroquinoline-1(2H)-sulphonamide]: the Ki came to 231 nM.

On to `NS(=O)(=O)Nc1cccc2ccccc12` [2u, N-(Naphthalen-1-yl)sulfamide], for which the Ki is 160 nM.

In the case of `NS(=O)(=O)N1CCc2ccccc21` [2v, Indoline-1-sulphonamide], the Ki was 723 nM.

For `NS(=O)(=O)Nc1ccc(F)cc1F` [2w, N-(2,4-Difluorophenyl)sulfamide], the Ki is 45.7 nM.

The target in another assay is T2, hCA II (Homo sapiens, UniProt P00918).
T2 construct: gene CA2; recombinant, obtained in-house
In words: stopped-flow CO2 hydration. The class given is biochemical. Particulars: read-out: Ki (nM)^b / hCA II. An excerpt: stopped-flow CO2 hydration on hCA II
Regarding `NS(=O)(=O)N1CCC(O)CC1` [2a, 4-Hydroxypiperidine-1-sulphonamide], the Ki worked out at 42.7 nM.

Turning to `CN1CCN(S(N)(=O)=O)CC1` [2b, 4-Methylpiperazine-1-sulphonamide], the Ki is 32.1 nM.

With `NS(=O)(=O)NCc1ccc(F)cc1` [2c, N-(4-Fluorobenzyl)sulfamide], the Ki worked out at 70.5 nM.

As to `NS(=O)(=O)NC1CCCc2ccccc21` (centres unmarked) [2d, N-(1,2,3,4-Tetrahydronaphthalen-1-yl)sulfamide], the Ki amounted to 42.6 nM.

In the case of `NS(=O)(=O)NCC1CCCO1` (centres unmarked) [2e, N-((tetrahydrofuran-2-yl)methyl)sulfamide], the Ki came out at 63.4 nM.

As to `COC(=O)C1CCCN1S(N)(=O)=O` (centres unmarked) [2f, Methyl sulfamoylprolinate], the Ki came out at 69.8 nM.

For the molecule `CN1CCC(NS(N)(=O)=O)CC1` [2g, (1-Methylpiperidin-4-yl)sulfamide], the Ki came to 52.1 nM.

In the case of `NS(=O)(=O)N1CCC(c2ccccc2)CC1` [2h, 4-Phenylpiperidine-1-sulphonamide], the Ki came out at 120 nM.

Take `CN(C)CCN(Cc1ccccc1)S(N)(=O)=O` [2i, Benzyl (2-(dimethylamino)ethyl)sulfamide]: the Ki stood at 39.8 nM.

Consider `NS(=O)(=O)NCc1cccnc1` [2j, (Pyridin-3-ylmethyl)sulfamide], for which the Ki was 90.2 nM.

As to `NS(=O)(=O)NCc1cccs1` [2k, (Thiophen-2-ylmethyl) sulfamide], the Ki was determined as 48.2 nM.

Turning to `CCN(CC)CCN(C)S(N)(=O)=O` [2l, (2-(Diethylamino)ethyl)(methyl)sulfamide], the Ki came out at 92.3 nM.

For the molecule `CCOC(=O)C1CCN(S(N)(=O)=O)CC1` [2m, Ethyl 1-sulfamoylpiperidine-4-carboxylate], the Ki was 42.8 nM.

For `NS(=O)(=O)N1CCC(N2CCCCC2)CC1` [2n, [1,4'-Bipiperidine]-1'-sulphonamide], the Ki turned out to be 99.3 nM.

On to `NS(=O)(=O)N1CCOCC1` [2o, Morpholine-4-sulphonamide], for which the Ki worked out at 66.9 nM.

Consider `NC(=O)C1CCN(S(N)(=O)=O)CC1` [2p, 1-Sulfamoylpiperidine-4-carboxamide], for which the Ki stood at 59.4 nM.

As for `NS(=O)(=O)N1CCNCC1` [2q, Piperazine-1-sulphonamide hydrochloride], the Ki came to 52.9 nM.

For `CC1Cc2ccccc2N1S(N)(=O)=O` (centres unmarked) [2r, 2-Methylindoline-1-sulphonamide], the Ki was found to be 316 nM.

`NS(=O)(=O)Nc1ncccn1` [2s, N-(Pyrimidin-2-yl)sulfamide]: the Ki stood at 59.4 nM.

In the case of `NS(=O)(=O)N1CCCc2ccccc21` [2t, 3,4-Dihydroquinoline-1(2H)-sulphonamide], the Ki is 89.5 nM.

In the case of `NS(=O)(=O)Nc1cccc2ccccc12` [2u, N-(Naphthalen-1-yl)sulfamide], the Ki is 56.7 nM.

For `NS(=O)(=O)N1CCc2ccccc21` [2v, Indoline-1-sulphonamide], the Ki was found to be 472 nM.

`NS(=O)(=O)Nc1ccc(F)cc1F` [2w, N-(2,4-Difluorophenyl)sulfamide]: the Ki was 76.3 nM.

The target in a further assay is T3, hCA XII (Homo sapiens, UniProt O43570).
T3 construct: gene CA12; recombinant, obtained in-house
T3 sequence (O43570 25-354): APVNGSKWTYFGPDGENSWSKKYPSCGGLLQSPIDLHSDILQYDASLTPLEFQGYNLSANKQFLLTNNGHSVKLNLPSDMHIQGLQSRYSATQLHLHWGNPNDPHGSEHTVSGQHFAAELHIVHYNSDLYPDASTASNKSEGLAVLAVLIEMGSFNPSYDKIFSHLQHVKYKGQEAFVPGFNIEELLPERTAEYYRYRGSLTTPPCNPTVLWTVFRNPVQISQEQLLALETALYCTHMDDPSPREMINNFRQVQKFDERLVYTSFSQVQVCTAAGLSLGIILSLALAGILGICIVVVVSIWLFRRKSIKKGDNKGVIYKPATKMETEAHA
In words: stopped-flow CO2 hydration. The class given is biochemical. Particulars: read-out: Ki (nM)^b / hCA XII. An excerpt: stopped-flow CO2 hydration on hCA XII
`NS(=O)(=O)N1CCC(O)CC1` [2a, 4-Hydroxypiperidine-1-sulphonamide]: the Ki came out at 25.3 nM.

Regarding `CN1CCN(S(N)(=O)=O)CC1` [2b, 4-Methylpiperazine-1-sulphonamide], the Ki was 52.5 nM.

Take `NS(=O)(=O)NCc1ccc(F)cc1` [2c, N-(4-Fluorobenzyl)sulfamide]: the Ki came to 51.7 nM.

Consider `NS(=O)(=O)NC1CCCc2ccccc21` (centres unmarked) [2d, N-(1,2,3,4-Tetrahydronaphthalen-1-yl)sulfamide], for which the Ki was 59.7 nM.

For `NS(=O)(=O)NCC1CCCO1` (centres unmarked) [2e, N-((tetrahydrofuran-2-yl)methyl)sulfamide], the Ki was 98 nM.

As for `COC(=O)C1CCCN1S(N)(=O)=O` (centres unmarked) [2f, Methyl sulfamoylprolinate], the Ki was found to be 83.6 nM.

In the case of `CN1CCC(NS(N)(=O)=O)CC1` [2g, (1-Methylpiperidin-4-yl)sulfamide], the Ki was determined as 38.4 nM.

As for `NS(=O)(=O)N1CCC(c2ccccc2)CC1` [2h, 4-Phenylpiperidine-1-sulphonamide], the Ki is 96.7 nM.

`CN(C)CCN(Cc1ccccc1)S(N)(=O)=O` [2i, Benzyl (2-(dimethylamino)ethyl)sulfamide]: the Ki amounted to 19.7 nM.

As for `NS(=O)(=O)NCc1cccnc1` [2j, (Pyridin-3-ylmethyl)sulfamide], the Ki was 16.5 nM.

For `NS(=O)(=O)NCc1cccs1` [2k, (Thiophen-2-ylmethyl) sulfamide], the Ki is 66.8 nM.

With `CCN(CC)CCN(C)S(N)(=O)=O` [2l, (2-(Diethylamino)ethyl)(methyl)sulfamide], the Ki came to 72.5 nM.

As for `CCOC(=O)C1CCN(S(N)(=O)=O)CC1` [2m, Ethyl 1-sulfamoylpiperidine-4-carboxylate], the Ki stood at 25.9 nM.

On to `NS(=O)(=O)N1CCC(N2CCCCC2)CC1` [2n, [1,4'-Bipiperidine]-1'-sulphonamide], for which the Ki was 35.1 nM.

For `NS(=O)(=O)N1CCOCC1` [2o, Morpholine-4-sulphonamide], the Ki worked out at 101 nM.

For the molecule `NC(=O)C1CCN(S(N)(=O)=O)CC1` [2p, 1-Sulfamoylpiperidine-4-carboxamide], the Ki turned out to be 40.2 nM.

As for `NS(=O)(=O)N1CCNCC1` [2q, Piperazine-1-sulphonamide hydrochloride], the Ki was 100 nM.

Turning to `CC1Cc2ccccc2N1S(N)(=O)=O` (centres unmarked) [2r, 2-Methylindoline-1-sulphonamide], the Ki turned out to be 116 nM.

For the molecule `NS(=O)(=O)Nc1ncccn1` [2s, N-(Pyrimidin-2-yl)sulfamide], the Ki came to 39.3 nM.

As for `NS(=O)(=O)N1CCCc2ccccc21` [2t, 3,4-Dihydroquinoline-1(2H)-sulphonamide], the Ki is 114 nM.

For the molecule `NS(=O)(=O)Nc1cccc2ccccc12` [2u, N-(Naphthalen-1-yl)sulfamide], the Ki is 72.3 nM.

For the molecule `NS(=O)(=O)N1CCc2ccccc21` [2v, Indoline-1-sulphonamide], the Ki stood at 95.7 nM.

As to `NS(=O)(=O)Nc1ccc(F)cc1F` [2w, N-(2,4-Difluorophenyl)sulfamide], the Ki came to 224 nM.

The target of the next assay is T4, hCA IX (Homo sapiens, UniProt Q16790).
T4 construct: gene CA9; recombinant, obtained in-house
In words: stopped-flow CO2 hydration. The class given is biochemical. The conditions noted are these: read-out: Ki (nM)^b / hCA IX. An excerpt:
stopped-flow CO2 hydration on hCA IX
As for `NS(=O)(=O)N1CCC(O)CC1` [2a, 4-Hydroxypiperidine-1-sulphonamide], the Ki stood at 54.2 nM.

`CN1CCN(S(N)(=O)=O)CC1` [2b, 4-Methylpiperazine-1-sulphonamide]: the Ki came out at 58.6 nM.

With `NS(=O)(=O)NCc1ccc(F)cc1` [2c, N-(4-Fluorobenzyl)sulfamide], the Ki came out at 30.7 nM.

Consider `NS(=O)(=O)NC1CCCc2ccccc21` (centres unmarked) [2d, N-(1,2,3,4-Tetrahydronaphthalen-1-yl)sulfamide], for which the Ki was determined as 36.8 nM.

For the molecule `NS(=O)(=O)NCC1CCCO1` (centres unmarked) [2e, N-((tetrahydrofuran-2-yl)methyl)sulfamide], the Ki was 92.7 nM.

Take `COC(=O)C1CCCN1S(N)(=O)=O` (centres unmarked) [2f, Methyl sulfamoylprolinate]: the Ki stood at 78.2 nM.

In the case of `CN1CCC(NS(N)(=O)=O)CC1` [2g, (1-Methylpiperidin-4-yl)sulfamide], the Ki came to 63.2 nM.

Regarding `NS(=O)(=O)N1CCC(c2ccccc2)CC1` [2h, 4-Phenylpiperidine-1-sulphonamide], the Ki came to 58.2 nM.

Regarding `CN(C)CCN(Cc1ccccc1)S(N)(=O)=O` [2i, Benzyl (2-(dimethylamino)ethyl)sulfamide], the Ki was 65.1 nM.

As for `NS(=O)(=O)NCc1cccnc1` [2j, (Pyridin-3-ylmethyl)sulfamide], the Ki stood at 29.5 nM.

In the case of `NS(=O)(=O)NCc1cccs1` [2k, (Thiophen-2-ylmethyl) sulfamide], the Ki came to 73.2 nM.

Take `CCN(CC)CCN(C)S(N)(=O)=O` [2l, (2-(Diethylamino)ethyl)(methyl)sulfamide]: the Ki was found to be 126 nM.

Regarding `CCOC(=O)C1CCN(S(N)(=O)=O)CC1` [2m, Ethyl 1-sulfamoylpiperidine-4-carboxylate], the Ki is 58.1 nM.

Take `NS(=O)(=O)N1CCC(N2CCCCC2)CC1` [2n, [1,4'-Bipiperidine]-1'-sulphonamide]: the Ki is 72.5 nM.

For the molecule `NS(=O)(=O)N1CCOCC1` [2o, Morpholine-4-sulphonamide], the Ki amounted to 82.1 nM.

With `NC(=O)C1CCN(S(N)(=O)=O)CC1` [2p, 1-Sulfamoylpiperidine-4-carboxamide], the Ki is 46.2 nM.

Regarding `NS(=O)(=O)N1CCNCC1` [2q, Piperazine-1-sulphonamide hydrochloride], the Ki worked out at 78.2 nM.

In the case of `CC1Cc2ccccc2N1S(N)(=O)=O` (centres unmarked) [2r, 2-Methylindoline-1-sulphonamide], the Ki worked out at 94.7 nM.

For `NS(=O)(=O)Nc1ncccn1` [2s, N-(Pyrimidin-2-yl)sulfamide], the Ki worked out at 68 nM.

With `NS(=O)(=O)N1CCCc2ccccc21` [2t, 3,4-Dihydroquinoline-1(2H)-sulphonamide], the Ki amounted to 34.2 nM.

Regarding `NS(=O)(=O)Nc1cccc2ccccc12` [2u, N-(Naphthalen-1-yl)sulfamide], the Ki amounted to 25.4 nM.

As for `NS(=O)(=O)N1CCc2ccccc21` [2v, Indoline-1-sulphonamide], the Ki was 102 nM.

Regarding `NS(=O)(=O)Nc1ccc(F)cc1F` [2w, N-(2,4-Difluorophenyl)sulfamide], the Ki is 38.5 nM.
